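Growth conditions: 96-well plates. Treatment: test compound, 48 hours, 5 concentrations. Analysis: linear interpolation between bracketing concentrations; unreached endpoints set to highest concentration. The concentration for full growth arrest is given as TGI.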
How the values were obtained:
Experiment in all cases: NCI-60 cell line screen, 48 h
HCT-116 colon = system: HCT-116 colon
786-0 renal = system: 786-0 renal
K-562 leukemia = system: K-562 leukemia
MOLT-4 leukemia = system: MOLT-4 leukemia
DLD-1 colon = system: DLD-1 colon
NCI-H226 lung = system: NCI-H226 lung
SNB-19 CNS = system: SNB-19 CNS
CAKI-1 renal = system: CAKI-1 renal
SF-539 CNS = system: SF-539 CNS
UO-31 renal = system: UO-31 renal
A549 NSCLC = system: A549 NSCLC
SR leukemia = system: SR leukemia
HL-60(TB) leukemia = system: HL-60(TB) leukemia
NCI-H522 lung = system: NCI-H522 lung
ACHN renal = system: ACHN renal
SK-MEL-28 melanoma = system: SK-MEL-28 melanoma
LXFL 529 NSCLC = system: LXFL 529 NSCLC
M14 melanoma = system: M14 melanoma
SW-620 colon = system: SW-620 colon
SNB-78 CNS = system: SNB-78 CNS
SF-295 CNS = system: SF-295 CNS
RPMI-8226 leukemia = system: RPMI-8226 leukemia
HCT-15 colon = system: HCT-15 colon
UACC-62 melanoma = system: UACC-62 melanoma
KM12 colon = system: KM12 colon
KM20L2 colon = system: KM20L2 colon
RXF-631 renal = system: RXF-631 renal
LOX IMVI melanoma = system: LOX IMVI melanoma
IGROV1 ovarian = system: IGROV1 ovarian
TK-10 renal = system: TK-10 renal
SN12C renal = system: SN12C renal
UACC-257 melanoma = system: UACC-257 melanoma
HOP-92 NSCLC = system: HOP-92 NSCLC
SF-268 CNS = system: SF-268 CNS
XF 498 CNS = system: XF 498 CNS
DMS 273 small cell lung = system: DMS 273 small cell lung
SK-MEL-2 melanoma = system: SK-MEL-2 melanoma
CCRF-CEM leukemia = system: CCRF-CEM leukemia
SK-OV-3 ovarian = system: SK-OV-3 ovarian
U251 CNS = system: U251 CNS
NCI-H23 lung = system: NCI-H23 lung
SNB-75 CNS = system: SNB-75 CNS
EKVX NSCLC = system: EKVX NSCLC
MALME-3M melanoma = system: MALME-3M melanoma
M19-MEL melanoma = system: M19-MEL melanoma
OVCAR-3 ovarian = system: OVCAR-3 ovarian
HT29 colon = system: HT29 colon
HCC-2998 colon = system: HCC-2998 colon
A498 renal = system: A498 renal
OVCAR-4 ovarian = system: OVCAR-4 ovarian
OVCAR-5 ovarian = system: OVCAR-5 ovarian
HOP-62 NSCLC = system: HOP-62 NSCLC
NCI-H460 lung = system: NCI-H460 lung
SK-MEL-5 melanoma = system: SK-MEL-5 melanoma
DMS 114 small cell lung = system: DMS 114 small cell lung
OVCAR-8 ovarian = system: OVCAR-8 ovarian
COLO 205 colon = system: COLO 205 colon

`CCOc1cccc2c1N[S@@](=O)S2` gave a TGI (HCT-116 colon) greater than 100 µM, a TGI (786-0 renal) greater than 100 µM and a TGI (K-562 leukemia) greater than 100 µM. The TGI (MOLT-4 leukemia) was greater than 100 µM, the TGI (DLD-1 colon) was greater than 100 µM and the TGI (NCI-H226 lung) was greater than 100 µM. For the same molecule, the TGI (SNB-19 CNS) was greater than 100 µM, the TGI (CAKI-1 renal) was greater than 100 µM and the TGI (SF-539 CNS) was greater than 100 µM. The TGI (UO-31 renal) was greater than 100 µM, the TGI (A549 NSCLC) was greater than 100 µM and the TGI (SR leukemia) was greater than 100 µM. For the same molecule, the TGI (HL-60(TB) leukemia) was greater than 100 µM, the TGI (NCI-H522 lung) was greater than 100 µM and the TGI (ACHN renal) was greater than 100 µM. It also gave a TGI (SK-MEL-28 melanoma) greater than 100 µM, a TGI (LXFL 529 NSCLC) greater than 100 µM and a TGI (M14 melanoma) greater than 100 µM. For the same molecule, the TGI (SW-620 colon) was greater than 100 µM, the TGI (SNB-78 CNS) was greater than 100 µM and the TGI (SF-295 CNS) was greater than 100 µM. The TGI (RPMI-8226 leukemia) was greater than 100 µM, the TGI (HCT-15 colon) was greater than 100 µM and the TGI (UACC-62 melanoma) was greater than 100 µM. For the same molecule, the TGI (KM12 colon) was greater than 100 µM, the TGI (KM20L2 colon) was greater than 100 µM and the TGI (RXF-631 renal) was greater than 100 µM. The TGI (LOX IMVI melanoma) was greater than 100 µM, the TGI (IGROV1 ovarian) was greater than 100 µM and the TGI (TK-10 renal) was greater than 100 µM. The TGI (SN12C renal) was greater than 100 µM, the TGI (UACC-257 melanoma) was greater than 100 µM and the TGI (HOP-92 NSCLC) was greater than 100 µM. It also gave a TGI (SF-268 CNS) greater than 100 µM, a TGI (XF 498 CNS) greater than 100 µM and a TGI (DMS 273 small cell lung) greater than 100 µM. For the same molecule, the TGI (SK-MEL-2 melanoma) was greater than 100 µM, the TGI (CCRF-CEM leukemia) was greater than 100 µM and the TGI (SK-OV-3 ovarian) was greater than 100 µM. It also gave a TGI (U251 CNS) greater than 100 µM, a TGI (NCI-H23 lung) greater than 100 µM and a TGI (SNB-75 CNS) greater than 100 µM. The TGI (EKVX NSCLC) was greater than 100 µM, the TGI (MALME-3M melanoma) was greater than 100 µM and the TGI (M19-MEL melanoma) was greater than 100 µM. For the same molecule, the TGI (OVCAR-3 ovarian) was greater than 100 µM and the TGI (HT29 colon) was greater than 100 µM.
Molecule `Clc1ccccc1CN1COc2c(ccc3cccnc23)C1` has a TGI (HCT-116 colon) of 9.66 µM, a TGI (786-0 renal) of 14.8 µM and a TGI (K-562 leukemia) of 4.51 µM. It also gave a TGI (MOLT-4 leukemia) of 6.77 µM, a TGI (DLD-1 colon) of 17.5 µM and a TGI (NCI-H226 lung) of 19.4 µM. The TGI (SNB-19 CNS) was greater than 100 µM, the TGI (CAKI-1 renal) was 12.8 µM and the TGI (SF-539 CNS) was 11.7 µM. The TGI (HCC-2998 colon) was 19.6 µM, the TGI (UO-31 renal) was 7.2 µM and the TGI (A549 NSCLC) was 14.2 µM. The TGI (A498 renal) was 22.1 µM, the TGI (OVCAR-4 ovarian) was 14.6 µM and the TGI (HL-60(TB) leukemia) was 4.33 µM. For the same molecule, the TGI (OVCAR-5 ovarian) was 22.8 µM, the TGI (NCI-H522 lung) was 4.53 µM and the TGI (ACHN renal) was 13.2 µM. It also gave a TGI (SK-MEL-28 melanoma) of 14.9 µM, a TGI (M14 melanoma) of 10.8 µM and a TGI (SW-620 colon) of 12.4 µM. The TGI (SNB-78 CNS) was 14 µM, the TGI (HOP-62 NSCLC) was 7.25 µM and the TGI (SF-295 CNS) was 10.6 µM. It also gave a TGI (RPMI-8226 leukemia) of 7.15 µM, a TGI (HCT-15 colon) of 14.8 µM and a TGI (UACC-62 melanoma) of 8.56 µM. It also gave a TGI (KM12 colon) of 18.1 µM, a TGI (KM20L2 colon) of 35.9 µM and a TGI (LOX IMVI melanoma) of 22.5 µM. It also gave a TGI (IGROV1 ovarian) of 11.6 µM, a TGI (TK-10 renal) of 23.2 µM and a TGI (NCI-H460 lung) of 20.8 µM. For the same molecule, the TGI (SK-MEL-5 melanoma) was 8.93 µM, the TGI (SN12C renal) was 23.2 µM and the TGI (UACC-257 melanoma) was 8.2 µM. For the same molecule, the TGI (HOP-92 NSCLC) was 7.6 µM, the TGI (SF-268 CNS) was 13.5 µM and the TGI (XF 498 CNS) was 22.4 µM. It also gave a TGI (DMS 273 small cell lung) of 11.1 µM, a TGI (SK-MEL-2 melanoma) of 6.63 µM and a TGI (CCRF-CEM leukemia) of 1.74 µM. The TGI (DMS 114 small cell lung) was 6.19 µM, the TGI (SK-OV-3 ovarian) was 19.9 µM and the TGI (U251 CNS) was 19.1 µM. The TGI (NCI-H23 lung) was 5.34 µM, the TGI (SNB-75 CNS) was 21.1 µM and the TGI (OVCAR-8 ovarian) was 15.3 µM. For the same molecule, the TGI (COLO 205 colon) was 24.8 µM, the TGI (EKVX NSCLC) was 15.9 µM and the TGI (MALME-3M melanoma) was 16.3 µM. It also gave a TGI (M19-MEL melanoma) of 15.1 µM and a TGI (OVCAR-3 ovarian) of 11.2 µM.

Reference: PubChem BioAssay (NCI)
